{"source": "patent US20260283927A1", "about": "“CRYSTALLINE FORM OF CERAMIDE NP AND COMPOSITION INCLUDING THE SAME” (CRODA KOREA LTD., priority 2023, published 2026)", "type": "physicochemical", "procedure": "Thermogravimetric analysis (TGA) was performed using a Mettler TGA 2 equipped with a 34 position auto-sampler. The instrument was calibrated for energy and temperature using certified Isoderm and Nickel. 10.01 mg of the ceramide NP powder of Example 1 was added to a pinhole aluminum pan and heated from 20° C. to 800° C. at 10° C./min to perform thermogravimetric analysis. The TGA results of the ceramide NP powder of Example 1 are shown in FIG. 7, and the TGA results of the ceramide NP powder of Comparative Example 1 are shown in FIG. 8. The TGA results of ceramide NP powder of Example 1 and the ceramide NP powder of Comparative Example 1 are compared to each other by being arranged to overlap each other in FIG. 9.", "data": [{"molecule": "CCCCCCCC/C=C\\CCCCCCCC(=O)N[C@@H](CO)[C@H](O)[C@H](O)CCCCCCCCCCCCCC", "note": "[Example 1, ceramide NP]", "values": [{"measurement": "mass remaining", "result": "about 95%"}, {"measurement": "stability compared with ceramide NP powder of Comparative Example 1", "result": "more stable"}, {"measurement": "temperature at which decomposition began (no weight loss until then)", "setting": "TGA, heated from 20° C. to 800° C. at 10° C./min", "result": 200, "unit": "°C"}]}, {"molecule": "ceramide NP [Comparative Example 1, reference compound]", "values": [{"measurement": "mass remaining", "result": "about 95%"}]}]}
